The source of these data is patent US12150995B2, “IRAK degraders and uses thereof” (Kymera Therapeutics, Inc., priority 2020, dated 2024).

The assay addresses T1, IRAK4 (Homo sapiens, UniProt Q9NWZ3).
T1 construct: endogenous in cells; host or cells: OCI-LY10
T1 sequence (Q9NWZ3 1-460): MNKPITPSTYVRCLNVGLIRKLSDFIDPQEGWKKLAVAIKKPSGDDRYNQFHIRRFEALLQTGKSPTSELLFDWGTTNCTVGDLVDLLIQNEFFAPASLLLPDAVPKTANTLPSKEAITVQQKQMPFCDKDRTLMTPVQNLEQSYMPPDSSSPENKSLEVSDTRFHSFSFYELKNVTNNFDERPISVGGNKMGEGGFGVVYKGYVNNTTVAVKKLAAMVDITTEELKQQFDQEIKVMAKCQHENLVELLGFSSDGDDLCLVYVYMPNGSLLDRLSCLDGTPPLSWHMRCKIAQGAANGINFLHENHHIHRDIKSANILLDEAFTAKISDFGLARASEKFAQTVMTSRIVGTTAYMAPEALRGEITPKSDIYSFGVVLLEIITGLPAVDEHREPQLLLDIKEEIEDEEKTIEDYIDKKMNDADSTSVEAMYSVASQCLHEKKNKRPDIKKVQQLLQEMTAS
Description: IRAK4 MSD Degradation in OCI-LY10. The class given is cell-based. To be noted: OCI-LY10 cells, Meso Scale Discovery, incubated 4 to 24 hours. The method, then:
Degradation of IRAK4 in OCI-LY10 was quantitatively measured using Meso Scale Discovery technology. OCI-LY10 cells were seeded in 96-well plates (Corning 3799) with a density of 300,000 cells per well in 100 μL fresh media. Compounds were then added to the assay plates with a final top concentration of 1 to 10 μM in a 1:3 dilution series with total of 8 doses. The assay plates were then incubated for 4 to 24 hours at 37° C. under 5% CO2. The assay plates were then centrifuged for 5 minutes and the cell pellets were treated with 100 μL/well RIPA lysis buffer (Boston BioProducts BP-115D) with proteinase inhibitors. To prepare MSD assay plates (Meso Scale Discovery Catalog number L15XA-3), the plates were coated with 2 μg/mL capture antibody (mouse Anti-IRAK4 antibody [2H9], ab119942) in PBS, at 40 μL/well. The plates were then incubated overnight at 4° C., washed 3 times with 150 μL/well TBST buffer (Cell Signaling Technology, Catalog number 9997S) and blocked with 150 μL/well blocking buffer (Meso Scale Discovery Catalog number R93BA-4). Cell lysates were then added to MSD assay plates and the plates were incubated at room temperature for 1 hour. The plates were then washed 3 times with 150 μL/well TBST buffer and […] primary detection antibody (rabbit Anti-IRAK4 antibody [Y279], from Abcam. Catalog number ab32511, 1 μg/mL). The assay plates were then incubated at room temperature for 1 hour, washed 3 times with 150 μL/well TBST buffer and 254/well secondary detection antibody, SULFO-TAG anti-rabbit antibody were added (anti rabbit antibody from Meso Scale Discovery, Catalog number R32AB-1, 1 μg/mL). The assay plates were then incubated at room temperature for 1 hour, washed 3 times with 150 μL/well TBST buffer, and 150 μL/well MSD reading buffer (Meso Scale Discovery catalog number R92TC-2) was added. The plates were then analyzed by a MSD reader (Meso Scale Discovery, Model Quick Plex SQ 120). The data was then analyzed by software Prism 7.0 from GraphPad and the dose-depended IRAK4 degradation were fit using a three-parameter logistic equation to calculate DC50.
The letter codes for IRAK4 DC50 include: A (<0.01 μM); B (0.01-0.05 μM); C (0.05-0.1 μM); D (0.1-0.2 μM); and E (>0.2 μM).

Bounds are passed on as bounds.

By DC50 is commonly meant the concentration giving 50% degradation. On to `N#Cc1cnc2c(C(=O)Nc3ccc4nn([C@H]5CC[C@H](CN6CCC(c7ccc8c(N9CCC(=O)NC9=O)cncc8c7)CC6)CC5)cc4c3)cnn2c1` [I-170, 6-Cyano-N-[2-[4-[[4-[4-(2,4-dioxohexahydropyrimidin-1-yl)-7-isoquinolyl]-1-piperidyl]methyl]cyclohexyl]indazol-5-yl]pyrazolo[1,5-a]pyrimidine-3-carboxamide], for which the DC50 was > 200 nM.

In the case of `COc1ccc2c(c1C1CCN(C[C@H]3CC[C@H](n4cc5cc(NC(=O)c6cccc(C(F)(F)F)n6)ncc5n4)CC3)CC1)n(C)c(=O)n2C1CCC(=O)NC1=O` (stereo partly drawn) [I-104, N-[2-[4-[[4-[1-[(3S)-2,6-dioxo-3-piperidyl]-5-methoxy-3-methyl-2-oxo-benzimidazol-4-yl]-1-piperidyl]methyl]cyclohexyl]pyrazolo[3,4-c]pyridin-5-yl]-6-(trifluoromethyl)pyridine-2-carboxamide], the DC50 is < 10 nM.

`Cn1c(=O)n(C2CCC(=O)NC2=O)c2ccc(C3CCN(C[C@H]4CC[C@H](n5cc6cc(NC(=O)c7cccc(C(F)(F)F)n7)ccc6n5)CC4)CC3)c(Cl)c21` (stereo partly drawn) [I-180]: the DC50 was > 200 nM.

`COc1cc2nn([C@H]3C[C@H](CN4CCC(c5c(OC)ccc6c5n(C)c(=O)n6C5CCC(=O)NC5=O)CC4)C3)cc2cc1NC(=O)c1cccc(C(F)(F)F)n1` (stereo partly drawn) [I-138]: the DC50 is < 10 nM.

As to `COc1cc2nn(CCN(C)C3CCN(c4cccc5c4n(C)c(=O)n5C4CCC(=O)NC4=O)CC3)cc2cc1NC(=O)c1cnn2cccnc12` (stereo not drawn) [I-21, N-[2-[2-[[1-[1-(2,6-dioxo-3-piperidyl)-3-methyl-2-oxo-benzimidazol-4-yl]-4-piperidyl]-methyl-amino]ethyl]-6-methoxy-indazol-5-yl]pyrazolo[1,5-a]pyrimidine-3-carboxamide], the DC50 lay in the range of 100 to 200 nM.

As for `COc1cc2nn([C@H]3C[C@H](CN4CCC(c5c(Cl)ccc6c5n(C)c(=O)n6C5CCC(=O)NC5=O)CC4)C3)cc2cc1NC(=O)c1cccc(C(F)(F)F)n1` (stereo partly drawn) [I-87, N-[2-[3-[[4-[5-chloro-1-(2,6-dioxo-3-piperidyl)-3-methyl-2-oxo-benzimidazol-4-yl]-1-piperidyl]methyl]cyclobutyl]-6-methoxy-indazol-5-yl]-6-(trifluoromethyl)pyridine-2-carboxamide], the DC50 is < 10 nM.

For `CC(C)Nc1cc(-n2ccc3cc(C#N)cnc32)ncc1C(=O)N[C@H]1CC[C@H](CN2CCC(c3cccc4c3n(C)c(=O)n4C3CCC(=O)NC3=O)CC2)CC1` (stereo partly drawn) [I-114], the DC50 is < 10 nM.

`Cc1cccc(C(=O)Nc2cc3sc([C@H]4CC[C@H](CN5CCO[C@@H](CCCNc6cccc7c6C(=O)N(C6CCC(=O)NC6=O)C7=O)C5)CC4)nc3cc2C(C)(C)O)n1` (stereo partly drawn) [I-472] yielded a DC50 of 50 to 100 nM.

Consider `COc1cc2nn([C@H]3CC[C@H](CN4CCCN(c5cccc6c5n(C)c(=O)n6C5CCC(=O)NC5=O)CC4)CC3)cc2cc1NC(=O)c1cncc(C#N)c1` (stereo partly drawn) [I-367], for which the DC50 fell in the range of 10 to 50 nM.

`O=C1CCN(c2cncc3cc(N4CCN(C[C@H]5CC[C@H](n6cc7cc(NC(=O)c8cccc(C(F)(F)F)n8)c(C(F)F)cc7n6)CC5)CC4)ccc23)C(=O)N1` [I-375] came in with a DC50 of 10 to 50 nM.

Consider `Cn1c(=O)n(C2CCC(=O)NC2=O)c2cccc(C3CCN(C[C@H]4C[C@@H](n5cc6cc(NC(=O)c7cccc(C(F)(F)F)n7)c(F)cc6n5)C4)CC3)c21` (stereo partly drawn) [I-18], for which the DC50 was > 200 nM.

As for `COc1cc2nn([C@H]3CC[C@H](CN4CCC(c5cccc6c5n(C)c(=O)n6C5CCC(=O)NC5=O)CC4)CC3)cc2cc1NC(=O)c1cnc(C)c(Cl)c1` (stereo partly drawn) [I-134], the DC50 was > 200 nM.

On to `COc1cc2nn([C@H]3CC[C@H](CN4CCN(C[C@H]5C[C@H](c6cccc7c(N8CCC(=O)NC8=O)cncc76)C5)CC4)CC3)cc2cc1NC(=O)c1cccc(C(F)(F)F)n1` [I-285], for which the DC50 was < 10 nM.

On to `O=C1CCN(c2cncc3cc(C4CCN(C[C@H]5CC[C@H](c6nc7cnc(NC(=O)c8cccc(C(F)(F)F)n8)cc7s6)CC5)CC4)ccc23)C(=O)N1` [I-241], for which the DC50 is > 200 nM.

`Cc1cc2nn([C@H]3CC[C@H](CN4CCN(c5cccc6c5n(C)c(=O)n6C5CCC(=O)NC5=O)CC4(C)C)CC3)cc2cc1NC(=O)c1cccc(C(F)(F)F)n1` (stereo partly drawn) [I-305]: the DC50 is 10 to 50 nM.

The compound `COc1cc2nc(N3CCC(CN4CCN(c5cccc6c5n(C)c(=O)n6C5CCC(=O)NC5=O)CC4)CC3)sc2cc1NC(=O)c1cccc(C(F)(F)F)n1` (stereo not drawn) [I-427] showed a 50% degradation concentration (DC50) of 10 to 50 nM.

Turning to `COc1cc2nc([C@H]3CC[C@H](CN4CC5(CC(CCNc6cccc7c6C(=O)N(C6CCC(=O)NC6=O)C7=O)C5)C4)CC3)cn2cc1NC(=O)c1cccc(C(F)(F)F)n1` (stereo partly drawn) [I-10], the DC50 fell in the range of 50 to 100 nM.

As to `COc1cc2nn([C@H]3C[C@@H](CN4CC(c5cccc6c5n(C)c(=O)n6C5CCC(=O)NC5=O)C4)C3)cc2cc1NC(=O)c1cccc(C(F)(F)F)n1` (stereo partly drawn) [I-50, N-[2-[3-[[3-[1-(2,6-dioxo-3-piperidyl)-3-methyl-2-oxo-benzimidazol-4-yl]azetidin-1-yl]methyl]cyclobutyl]-6-methoxy-indazol-5-yl]-6-(trifluoromethyl)pyridine-2-carboxamide], the DC50 is 10 to 50 nM.

`CC(C)(O)c1cc2nc([C@H]3CC[C@H](C(=O)N4CC5(CC(CCNc6cccc7c6C(=O)N(C6CCC(=O)NC6=O)C7=O)C5)C4)CC3)sc2cc1NC(=O)c1cccc(C#N)n1` (stereo partly drawn) [I-436] came in with a DC50 of 50 to 100 nM.

On to `COc1cc2nn([C@H]3CC[C@H](CN(C)C4CCN(c5cccc6c5n(C)c(=O)n6C5CCC(=O)NC5=O)CC4)CC3)cc2cc1NC(=O)c1cncc(C#N)c1` (stereo partly drawn) [I-71, 5-cyano-N-[2-[4-[[[1-[1-(2,6-dioxo-3-piperidyl)-3-methyl-2-oxo-benzimidazol-4-yl]-4-piperidyl]-methyl-amino]methyl]cyclohexyl]-6-methoxy-indazol-5-yl]pyridine-3-carboxamide], for which the DC50 was < 10 nM.

In the case of `Cn1c(=O)n(C2CCC(=O)NC2=O)c2cccc(N3CCN(C[C@H]4CC[C@H](n5cc6cc(NC(=O)c7cccc(C(F)(F)F)n7)ccc6n5)CC4)CC3)c21` (stereo partly drawn) [I-209], the DC50 was < 10 nM.

With `CC(C)Nc1c(C(=O)N[C@H]2CC[C@H](CN3CCN(c4cccc5c(N6CCC(=O)NC6=O)cncc45)CC3)CC2)cnc2c1Oc1ccc(C#N)cc1O2` [I-408], the DC50 is > 200 nM.

Consider `COc1cc2nn([C@H]3CC[C@H](CN4[C@@H]5C[C@H]4CN(c4cccc6c4n(C)c(=O)n6C4CCC(=O)NC4=O)C5)CC3)cc2cc1NC(=O)c1cccc(C(F)(F)F)n1` (stereo partly drawn) [I-158], for which the DC50 is < 10 nM.

Compound `Cc1cccc(C(=O)Nc2cc3sc([C@H]4CC[C@H](CN5CCO[C@H](CCCNc6cccc7c6C(=O)N(C6CCC(=O)NC6=O)C7=O)C5)CC4)nc3cc2C(C)(C)O)n1` (stereo partly drawn) [I-477] came in with a DC50 of 100 to 200 nM.

In the case of `CC(C)(O)c1cc2nc([C@H]3CC[C@H](C(=O)N4CCC5(CC4)CC(CCNc4cccc6c4C(=O)N(C4CCC(=O)NC4=O)C6=O)C5)CC3)sc2cc1NC(=O)c1cccc(C#N)n1` (stereo partly drawn) [I-430], the DC50 is 100 to 200 nM.

`COc1cc2nn([C@H]3CC[C@H](CN(C)C4CCN(c5cc(Cl)cc6c5n(C)c(=O)n6C5CCC(=O)NC5=O)CC4)CC3)cc2cc1NC(=O)c1cccc(C(F)(F)F)n1` (stereo partly drawn) [I-54]: the DC50 was < 10 nM.

The compound `COc1cc2nn(C3CCN(C[C@H]4CC[C@H](c5cccc6c5n(C)c(=O)n6C5CCC(=O)NC5=O)CC4)CC3)cc2cc1NC(=O)c1cccc(C(F)(F)F)n1` (stereo partly drawn) [I-237] returned a DC50 of 10 to 50 nM.

For `O=C1CCN(c2cncc3c(C4CCN(C[C@H]5CC[C@H](c6nc7ccc(NC(=O)c8cccc(C(F)(F)F)n8)cc7s6)CC5)CC4)cccc23)C(=O)N1` [I-201], the DC50 was > 200 nM.

As to `COc1cc2nn([C@H]3CC[C@H](CN4CCC(c5cccc6c5n(C)c(=O)n6C5CCC(=O)NC5=O)CC4)CC3)cc2cc1NC(=O)c1ccccc1F` (stereo partly drawn) [I-174], the DC50 was < 10 nM.

As for `Cc1cccc(C(=O)Nc2cc3sc([C@H]4CC[C@H](CN5C[C@H]6C[C@@H]5CN6CCNc5cccc6c5C(=O)N(C5CCC(=O)NC5=O)C6=O)CC4)nc3cc2C(C)(C)O)n1` (stereo partly drawn) [I-475], the DC50 is < 10 nM.
